In patent US20230286956A1 (DUKSUNG WOMEN'S UNIVERSITY INDUSTRY-ACADEMIC COOPERATION …, priority 2020, published 2023):

Experiments:
[1] = test system: wild-type red mold strain GZ3639; assay: Inhibition of spore germination / reactive oxygen species generation through NOX enzyme inhibition in red mold; type: cell-based; conditions: 24 h, read-out: IC50 (µM), compound concentration at which the spore germination inhibition rate was 50%
Procedure: When NADPH oxidase (NOX), which is involved in the generation of reactive oxygen species in red mold, is inhibited, normal mycelial growth is inhibited, abnormal form of monocyclic conidia is formed, and germination is inhibited. The abnormal phenotype caused by the reduction of reactive oxygen species in red mold can be easily observed under an optical microscope. Through this, the ability to inhibit generation of reactive oxygen species through NOX inhibition was evaluated.
Specifically, for the evaluation of compound activity, 0.1 mM of the compound was added to a minimum medium (MM20) spore suspension diluted to ⅕. Spores ([…]) of wild-type red mold strain GZ3639 were inoculated into the medium and cultured at 25° C. for 24 h, followed by microscopic observation. Compounds having a germination inhibition rate and microcycle conidiation to be 50% or more of those in normal germination were selected, and their activities were evaluated at concentrations of 50 µM, 25 µM, and 10 µM. At this time, the activity of substances having a germination inhibition rate of 95% at 10 µM was further evaluated at concentrations of 5 µM, 1 µM, 0.5 µM, and 0.1 µM. Based on the result of this evaluation, the compound concentration (inhibitory concentration 50%, IC50) at which the spore germination inhibition rate was 50% was determined.

in vivo = assay: in vivo; parameters: species or system SD rats; conditions: SD, rat, po
Procedure: The bioavailability (BA) and pharmacokinetic properties of the compounds of the present invention were evaluated in an animal model. The compounds were administered to 8-week-old SD rats (300 to 350 g) at a dose of 2 to 5 mg/kg through oral and intravenous administration routes. After administration, blood was collected at regular time intervals and the time course of blood concentration was analyzed.

[2] = test system: substantia nigra dopaminergic neurons; assay: Inhibition of dopaminergic nerve cell death in MPTP animal model of Parkinson's disease (tyrosine hydroxylase immunostaining); type: in vivo, C57B16/J mice; conditions: Evaluations 3 and 4: intraperitoneal 5 mg/kg, 1 week before and after MPTP
Procedure: The dopaminergic neuronal cell protecting effect of the compound of the present invention was evaluated in an animal model of Parkinson’s disease. The animal model used was 7-week-old C57B16/J mice (23 to 25 g), to which MPTP (15 mg/kg) was administered 4 times at 1.5 hour intervals. For 1 to 2 days after administration, behavior was noticeably slowed and gradually recovered. In 1 week after MPTP administration, behavior was almost normalized to a level similar to that of normal mice.
In order to evaluate the efficacy of the compounds of the present invention, Compounds 1aaa (Compound 1), lace (Compound 27), 1ahe (Compound 44) and 1aje (Compound 62) were each administered at a dose of 5 mg/kg for 1 week, then MPTP (15 mg/kg x 4 times) was injected. These compounds were additionally administered for 1 week, and then dopamine innervation in the substantia nigra region was analyzed through immunostaining.
Specifically, selegiline, 1aaa, lace, 1ahe, 1aje, and apocynin were administered at a dose of 5 mg/kg for 7 days, then MPTP (15 mg/kg x 4 times) was administered to induce damage to dopaminergic neurons. After 7 days of additional administration of the compounds at the same dose, the animals were sacrificed. Immunostaining was performed using tyrosine hydroxylase antibody to measure the survival rate of substantia nigra dopaminergic neurons. After immunostaining, the number of surviving dopaminergic neurons was analyzed. The results are illustrated in FIG. 8.
In order to evaluate the efficacy of the compounds of the present invention, Compounds 1abv (Compound 22), 1abw (Compound 23), and 1ahs (Compound 52) were each intraperitoneally administered at a dose of 5 mg/kg for 1 week or orally administered at a dose of 50 mg/kg, then MPTP (15 mg/kg x 4 times) was injected. These compounds were additionally administered for 1 week, and then dopamine innervation in the substantia nigra region was analyzed through immunostaining. The results are illustrated in FIG. 9.
(§1) In order to evaluate the dopaminergic neuroprotective effect of the compounds of the present invention, Compounds 1aja (Compound 59) and 1abk (Compound 17) were each intraperitoneally administered at a dose of 5 mg/kg for 1 week, then MPTP (15 mg/kg x 4 times) was injected. These compounds were additionally administered for 1 week. After immunostaining using brain slices from each group, surviving dopaminergic neurons were photographed under a microscope and analyzed. The results are illustrated in FIG. 10.
as §1, with “1ajs” for “1aja”, “63), 1ajy (Compound 67),” for “59)”, “1aqj” for “1abk”, “85)” for “17)”, “11.” for “10.”

[3] = Single acute toxicity evaluation 2 (2000 mg/kg oral); type: in vivo, ICR mice
Procedure: Acute toxicity properties after single administration of the compounds of the present invention were evaluated in an animal model.

CN1C(=[Se])N(c2ccccc2)C(=O)/C1=C\c1ccc(O)cc1O [Compound 1, 5-(2,4-dihydroxybenzylidene)-1-methyl-3-phenyl-2-selenoxoimidazolidine-4-on]
IC50 [1]: 20 µM
bioavailability (in vivo): 13%

Cc1ccc(N2C(=O)C(=Cc3ccc(N4CCCC4)cc3)N(C)C2=[Se])cc1 [Compound 1abk, 1-methyl-5-(4-pyrrolidine-1-yl)benzylidene-2-selenoxo-3-(4-tolyl)imidazolidine-4-on]
survival rate of dopaminergic neurons, of that in the control group [2]: 66%

CN1C(=[Se])N(CCc2ccccc2)C(=O)C1=Cc1ccc(N2CCOCC2)cc1 [Compound 1ahs]
change in body weight ([3]; day 0): 100
change in body weight ([3]; day 2): 97.6
change in body weight ([3]; day 4): 100.0
change in body weight ([3]; day 8): 103.8
change in body weight ([3]; day 10): 104.5
change in body weight ([3]; day 14): 105.0

CCCCCCN1C(=O)C(=Cc2ccc(O)cc2O)N(C)C1=[Se] [Compound 1aja]
change in body weight ([3]; day 0): 100
change in body weight ([3]; day 2): 95.6
change in body weight ([3]; day 4): 102.8
change in body weight ([3]; day 8): 105.8
change in body weight ([3]; day 10): 107.8
change in body weight ([3]; day 14): 107.6
survival rate of dopaminergic neurons, of that in the control group [2]: 76%

CN1C(=[Se])N(CCCN2CCOCC2)C(=O)C1=Cc1ccc(Cl)cc1 [Compound 1aqj]
change in body weight ([3]; day 0): 100
change in body weight ([3]; day 2): 94.6
change in body weight ([3]; day 4): 99.8
change in body weight ([3]; day 8): 104.8
change in body weight ([3]; day 10): 105.9
change in body weight ([3]; day 14): 106.6
survival rate of dopaminergic neurons, of that in the control group [2]: 75.1%

Cc1ccc(N2C(=O)/C(=C\c3ccc(N4CCCCC4)cc3)N(C)C2=[Se])cc1 [Compound 15, 1-methyl-5-(4-piperidine-1-yl)benzylidene-3-(4-tolyl)-2-selenoxoimidazolidine-4-on]
IC50 [1]: 11 µM
bioavailability (in vivo): 11%

Cc1ccc(N2C(=O)/C(=C\c3ccc(N4CCN(CCO)CC4)cc3)N(C)C2=[Se])cc1 [Compound 21, 5-(4-(4-(2-hydroxyethyl)piperazine-1-yl)benzylidene)-1-methyl-2-selenoxo-3-(4-tolyl)imidazoline-4-on]
bioavailability (in vivo): 11%

Cc1ccc(N2C(=O)/C(=C\c3ccc(NCCOCCO)cc3)N(C)C2=[Se])cc1 [Compound 22, 5-(4-((2-(2-hydroxyethoxy)ethyl)amino)benzylidene)-1-methyl-2-selenoxo-3-(4-tolyl)imidazoline-4-on]
IC50 [1]: 2.3 µM
bioavailability (in vivo): 55%

CCc1ccc(N2C(=O)/C(=C\c3cc(O)cc(O)c3)N(C)C2=[Se])cc1 [Compound 27, 5-(3,5-dihydroxybenzylidene)-3-(4-ethylphenyl)-1-methyl-2-selenoxoimidazolidine-4-on]
IC50 [1]: 9 µM
bioavailability (in vivo): 31%

CN1C(=[Se])N(CCc2ccccc2)C(=O)/C1=C\c1cc(O)cc(O)c1 [Compound 44]
IC50 [1]: 1 µM
bioavailability (in vivo): 73%

CCCCCCN1C(=O)/C(=C\c2ccc(O)cc2O)N(C)C1=[Se] [Compound 59, 5-(2,4-dihydroxybenzylidene)-3-hexyl-1-methyl-2-selenoxoimidazolidine-4-on]
IC50 [1]: 0.68 µM
bioavailability (in vivo): 23%

CCCCCN1C(=O)/C(=C\c2ccc(O)cc2O)N(C)C1=[Se] [Compound 93, 5-(2,4-dihydroxybenzylidene)-1-methyl-3-pentyl-2-selenoxoimidazolidine-4-on]
IC50 [1]: 2.9 µM

CCN1C(=[Se])N(c2ccccc2)C(=O)/C1=C\c1ccc(O)cc1O [Compound 95, 5-(2,4-dihydroxybenzylidene)-1-ethyl-3-phenyl-2-selenoxoimidazolidine-4-on]
IC50 [1]: 22 µM

CCN1C(=[Se])N(c2ccccc2)C(=O)/C1=C\c1cccc(O)c1O [Compound 96, 5-(2,3-dihydroxybenzylidene)-1-ethyl-3-phenyl-2-selenoxoimidazolidine-4-on]
IC50 [1]: 44 µM

CCc1ccc(N2C(=O)/C(=C\c3ccc(Br)cc3)N(CC)C2=[Se])cc1 [Compound 101, 5-(4-bromobenzylidene)-1-ethyl-3-(4-ethylphenyl)-2-selenoxoimidazolidine-4-on]
IC50 [1]: 45 µM

CCc1ccc(N2C(=O)/C(=C\c3ccc(N4CCCC4)cc3)N(CC)C2=[Se])cc1 [Compound 102, 1-ethyl-3-(4-ethylphenyl)-5-(4-pyrrolidine-1-yl)benzylidene-2-selenoxoimidazolidine-4-on]
IC50 [1]: 40 µM

O=C1/C(=C\c2cccc(O)c2O)N(Cc2ccccc2)C(=[Se])N1c1ccccc1 [Compound 104, 1-benzyl-5-(2,3-dihydroxybenzylidene)-3-phenyl-2-selenoxoimidazolidine-4-on]
IC50 [1]: 23 µM

O=C1/C(=C\c2ccc(O)c(O)c2)N(Cc2ccccc2)C(=[Se])N1c1ccccc1 [Compound 106, 1-benzyl-5-(3,4-dihydroxybenzylidene)-3-phenyl-2-selenoxoimidazolidine-4-on]
IC50 [1]: 34 µM

O=C1/C(=C\c2cc(O)cc(O)c2)N(Cc2ccccc2)C(=[Se])N1c1ccccc1 [Compound 107, 1-benzyl-5-(3,5-dihydroxybenzylidene)-3-phenyl-2-selenoxoimidazolidine-4-on]
IC50 [1]: 23 µM

CCc1ccc(N2C(=O)/C(=C\c3ccc(O)cc3O)N(Cc3ccccc3)C2=[Se])cc1 [Compound 108, 1-benzyl-5-(2,4-dihydroxybenzylidene)-3-(4-ethylphenyl)-2-selenoxoimidazolidine-4-on]
IC50 [1]: 22 µM

CCc1ccc(N2C(=O)/C(=C\c3ccc(O)c(O)c3)N(Cc3ccccc3)C2=[Se])cc1 [Compound 109, 1-benzyl-5-(3,4-dihydroxybenzylidene)-3-(4-ethylphenyl)-2-selenoxoimidazolidine-4-on]
IC50 [1]: 29 µM

CCc1ccc(N2C(=O)/C(=C\c3cc(O)cc(O)c3)N(Cc3ccccc3)C2=[Se])cc1 [Compound 110, 1-benzyl-5-(3,5-dihydroxybenzylidene)-3-(4-ethylphenyl)-2-selenoxoimidazolidine-4-on]
IC50 [1]: 23 µM

O=C1/C(=C\c2cccc(O)c2O)N(Cc2ccccc2)C(=[Se])N1c1ccc(Cl)cc1 [Compound 111, 1-benzyl-3-(4-chlorophenyl)-5-(2,3-dihydroxybenzylidene)-2-selenoxoimidazolidine-4-on]
IC50 [1]: 26 µM

O=C1/C(=C\c2ccc(O)c(O)c2)N(Cc2ccccc2)C(=[Se])N1c1ccc(Cl)cc1 [Compound 112, 1-benzyl-3-(4-chlorophenyl)-5-(3,4-dihydroxybenzylidene)-2-selenoxoimidazolidine-4-on]
IC50 [1]: 31 µM
